Source: patent publication US20210254272A1, “TEXTILES HAVING ANTIMICROBIAL PROPERTIES” (Livinguard AG, priority 2015, published 2021)

System: E. coli (ATCC 25922)
Test: AATCC Test Method 100-2012 antibacterial activity of the treated textile, after 25 washes and 12 abrasion cycles, contact time 60 minutes
Type: cell-based
Conditions: for Log reduction of antimicrobial performance: 1% o.w.f; for Log reduction of antimicrobial performance in 100 GSM Polyester fabric / Log reduction of antimicrobial performance in 100 GSM cotton fabric / Log reduction of antimicrobial performance in 300 GSM Polyester fabric / Log reduction of antimicrobial performance in 300 GSM cotton fabric / Performance Test-Log reduction of antimicrobial performance: 2 min; for Performance Test-Log reduction of antimicrobial performance: pad process, single agent 5 gm/lit
Experimental: The antibacterial activity of the textile was tested in accordance with AATCC Test Method 100-2012. Prior to the test, the fabric was cut into coupons of 2×4 inches and washed separately 25 times, and exposed to 12 abrasion cycles, as per US EPA protocol 90072PA4 (described further below). The tests were made against E. coli (ATCC 25922). Contact time was 60 minutes, after inoculating with 10^8 CFU per coupon.

[1] = exhaust 80° C., 60 min, curing 180° C., dosage 0.1% o.w.f
[2] = exhaust 80° C., 60 min, curing 180° C., dosage 0.2% o.w.f
[3] = exhaust 80° C., 60 min, curing 180° C., dosage 0.5% o.w.f
[4] = exhaust 80° C., 60 min, curing 180° C., dosage 0.8% o.w.f
[5] = exhaust 80° C., 60 min, curing 180° C., dosage 1.0% o.w.f

## CCCCCCCCCCCCCCCCCC[N+](C)(C)CCC[Si](OC)(OC)OC [Organosilane, dimethyloctadecyl[3-(trimethoxysilyl)propyl] ammonium chloride]
Exhaust 60° C., solution dosage 1% o.w.f, process time 60 min
  Log reduction of antimicrobial performance of each active ingredient: 1.5 Log
Exhaust 60° C., solution dosage 1% o.w.f, process time 90 min
  Log reduction of antimicrobial performance of each active ingredient: 1.7 Log
Exhaust 60° C., solution dosage 1% o.w.f, process time 120 min
  Log reduction of antimicrobial performance of each active ingredient: 1.8 Log
Exhaust 60° C., solution dosage 1% o.w.f, process time 180 min
  Log reduction of antimicrobial performance of each active ingredient: 1.8 Log
Exhaust 60° C., solution dosage 1% o.w.f, process time 240 min
  Log reduction of antimicrobial performance of each active ingredient: 1.73 Log
Exhaust 80° C., 60 min, curing 170° C., curing dwell time 0.5 min
  Log reduction of antimicrobial performance: 0.3 Log
Exhaust 80° C., 60 min, curing 170° C., curing dwell time 1.0 min
  Log reduction of antimicrobial performance: 0.5 Log
Exhaust 80° C., 60 min, curing 170° C., curing dwell time 1.5 min
  Log reduction of antimicrobial performance: 0.6 Log
Exhaust 80° C., 60 min, curing 170° C., curing dwell time 2.0 min
  Log reduction of antimicrobial performance: 1.2 Log
Exhaust 80° C., 60 min, curing 170° C., curing dwell time 2.5 min
  Log reduction of antimicrobial performance: 1.2 Log
Exhaust 80° C., 60 min, curing 170° C., curing dwell time 3.0 min
  Log reduction of antimicrobial performance: 0.75 Log
Exhaust 80° C., 60 min, curing 180° C., curing dwell time 0.5 min
  Log reduction of antimicrobial performance: 1.5 Log
Exhaust 80° C., 60 min, curing 180° C., curing dwell time 1.0 min
  Log reduction of antimicrobial performance: 1.7 Log
Exhaust 80° C., 60 min, curing 180° C., curing dwell time 1.5 min
  Log reduction of antimicrobial performance: 1.8 Log
Exhaust 80° C., 60 min, curing 180° C., curing dwell time 2.0 min
  Log reduction of antimicrobial performance: 3.9 Log
Exhaust 80° C., 60 min, curing 180° C., curing dwell time 2.5 min
  Log reduction of antimicrobial performance: 3.8 Log
Exhaust 80° C., 60 min, curing 180° C., curing dwell time 3.0 min
  Log reduction of antimicrobial performance: 3.7 Log
Exhaust 80° C., 60 min, curing 190° C., curing dwell time 0.5 min
  Log reduction of antimicrobial performance: 0.6 Log
Exhaust 80° C., 60 min, curing 190° C., curing dwell time 1.0 min
  Log reduction of antimicrobial performance: 1.1 Log
Exhaust 80° C., 60 min, curing 190° C., curing dwell time 1.5 min
  Log reduction of antimicrobial performance: 1.5 Log
Exhaust 80° C., 60 min, curing 190° C., curing dwell time 2.0 min
  Log reduction of antimicrobial performance: 2.55 Log
Exhaust 80° C., 60 min, curing 190° C., curing dwell time 2.5 min
  Log reduction of antimicrobial performance: 2.46 Log
Exhaust 80° C., 60 min, curing 190° C., curing dwell time 3.0 min
  Log reduction of antimicrobial performance: 1.2 Log
Exhaust 80° C., 60 min, curing temperature 100 ° C.
  Log reduction of antimicrobial performance: 0.17 Log
Exhaust 80° C., 60 min, curing temperature 120 ° C.
  Log reduction of antimicrobial performance: 0.56 Log
Exhaust 80° C., 60 min, curing temperature 140 ° C.
  Log reduction of antimicrobial performance: 0.97 Log
Exhaust 80° C., 60 min, curing temperature 160 ° C.
  Log reduction of antimicrobial performance: 1.11 Log
Exhaust 80° C., 60 min, curing temperature 165 ° C.
  Log reduction of antimicrobial performance: 1.16 Log
Exhaust 80° C., 60 min, curing temperature 170 ° C.
  Log reduction of antimicrobial performance: 1.26 Log
Exhaust 80° C., 60 min, curing temperature 175 ° C.
  Log reduction of antimicrobial performance: 2.16 Log
Exhaust 80° C., 60 min, curing temperature 180 ° C.
  Log reduction of antimicrobial performance: 2.56 Log
Exhaust 80° C., 60 min, curing temperature 185 ° C.
  Log reduction of antimicrobial performance: 2.59 Log
Exhaust 80° C., 60 min, curing temperature 190 ° C.
  Log reduction of antimicrobial performance: 2.61 Log
Exhaust 80° C., 60 min, curing temperature 195 ° C.
  Log reduction of antimicrobial performance: 2.63 Log
[1]
  Log reduction of antimicrobial performance in 100 GSM Polyester fabric: 0.73 Log
  Log reduction of antimicrobial performance in 100 GSM cotton fabric: 0.81 Log
  Log reduction of antimicrobial performance in 300 GSM Polyester fabric: 0.75 Log
  Log reduction of antimicrobial performance in 300 GSM cotton fabric: 0.82 Log
[2]
  Log reduction of antimicrobial performance in 100 GSM Polyester fabric: 1.67 Log
  Log reduction of antimicrobial performance in 100 GSM cotton fabric: 1.67 Log
  Log reduction of antimicrobial performance in 300 GSM Polyester fabric: 1.65 Log
  Log reduction of antimicrobial performance in 300 GSM cotton fabric: 1.68 Log
[3]
  Log reduction of antimicrobial performance in 100 GSM Polyester fabric: 1.79 Log
  Log reduction of antimicrobial performance in 100 GSM cotton fabric: 1.83 Log
  Log reduction of antimicrobial performance in 300 GSM Polyester fabric: 1.80 Log
  Log reduction of antimicrobial performance in 300 GSM cotton fabric: 1.83 Log
[4]
  Log reduction of antimicrobial performance in 100 GSM Polyester fabric: 2.19 Log
  Log reduction of antimicrobial performance in 100 GSM cotton fabric: 2.17 Log
  Log reduction of antimicrobial performance in 300 GSM Polyester fabric: 2.20 Log
  Log reduction of antimicrobial performance in 300 GSM cotton fabric: 2.18 Log
[5]
  Log reduction of antimicrobial performance in 100 GSM Polyester fabric: 2.58 Log
  Log reduction of antimicrobial performance in 100 GSM cotton fabric: 2.56 Log
  Log reduction of antimicrobial performance in 300 GSM Polyester fabric: 2.58 Log
  Log reduction of antimicrobial performance in 300 GSM cotton fabric: 2.57 Log
Exhaust 80° C., 60 min, dosage 1% o.w.f (test up to 5% o.w.f)
  Log reduction of antimicrobial performance of each active ingredient: 2.38 Log
Exhaust 80° C., 60 min, dosage 2% o.w.f
  Log reduction of antimicrobial performance of each active ingredient: 2.38 Log
Exhaust 80° C., 60 min, dosage 3% o.w.f
  Log reduction of antimicrobial performance of each active ingredient: 2.41 Log
Exhaust 80° C., 60 min, dosage 4% o.w.f
  Log reduction of antimicrobial performance of each active ingredient: 2.42 Log
Exhaust 80° C., 60 min, dosage 5% o.w.f
  Log reduction of antimicrobial performance of each active ingredient: 2.43 Log
Exhaust 80 ° C., solution dosage 1% o.w.f, process time 10 min
  Log reduction of antimicrobial performance of each active ingredient: 0.78 Log
Exhaust 80 ° C., solution dosage 1% o.w.f, process time 20 min
  Log reduction of antimicrobial performance of each active ingredient: 1.11 Log
Exhaust 80 ° C., solution dosage 1% o.w.f, process time 30 min
  Log reduction of antimicrobial performance of each active ingredient: 1.41 Log
Exhaust 80 ° C., solution dosage 1% o.w.f, process time 40 min
  Log reduction of antimicrobial performance of each active ingredient: 1.84 Log
Exhaust 80 ° C., solution dosage 1% o.w.f, process time 50 min
  Log reduction of antimicrobial performance of each active ingredient: 2.38 Log
Exhaust 80 ° C., solution dosage 1% o.w.f, process time 60 min
  Log reduction of antimicrobial performance of each active ingredient: 2.56 Log
Exhaust 80 ° C., solution dosage 1% o.w.f, process time 70 min
  Log reduction of antimicrobial performance of each active ingredient: 2.58 Log
Exhaust 80 ° C., solution dosage 1% o.w.f, process time 80 min
  Log reduction of antimicrobial performance of each active ingredient: 2.61 Log
Exhaust 80 ° C., solution dosage 1% o.w.f, process time 90 min
  Log reduction of antimicrobial performance of each active ingredient: 2.62 Log
Curing 120° C.
  Performance Test-Log reduction of antimicrobial performance: 0.05 Log
Curing 140° C.
  Performance Test-Log reduction of antimicrobial performance: 0.17 Log
Curing 150° C.
  Performance Test-Log reduction of antimicrobial performance: 0.27 Log
Curing 160° C.
  Performance Test-Log reduction of antimicrobial performance: 0.57 Log
